Assay results taken from PubChem BioAssay (NCI).
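Exposure lasted 48 hours, with cells grown in 96-well plates and compounds tested at five concentrations. GI50 is the concentration that inhibits growth by half. The concentration for full growth arrest is given as TGI.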

Tests used:
Experiment in all cases: NCI anticancer screen, dose series, 48 h
EKVX NSCLC = test system: EKVX NSCLC
SW-620 colon = test system: SW-620 colon
NCI-H226 lung = test system: NCI-H226 lung
SNB-75 CNS = test system: SNB-75 CNS
CAKI-1 renal = test system: CAKI-1 renal
A549 NSCLC = test system: A549 NSCLC
OVCAR-8 ovarian = test system: OVCAR-8 ovarian
NCI/ADR-RES ovarian = test system: NCI/ADR-RES ovarian
HCC-2998 colon = test system: HCC-2998 colon
HOP-92 NSCLC = test system: HOP-92 NSCLC

SMILES	TGI (EKVX NSCLC) [µM]	TGI (SW-620 colon) [µM]	TGI (NCI-H226 lung) [µM]	TGI (SNB-75 CNS) [µM]	TGI (CAKI-1 renal) [µM]	TGI (A549 NSCLC) [µM]	TGI (OVCAR-8 ovarian) [µM]	TGI (NCI/ADR-RES ovarian) [µM]	TGI (HCC-2998 colon) [µM]	TGI (HOP-92 NSCLC) [µM]	GI50 (EKVX NSCLC) [µM]	GI50 (SW-620 colon) [nM]	GI50 (NCI-H226 lung) [µM]	GI50 (SNB-75 CNS) [µM]	GI50 (CAKI-1 renal) [nM]	GI50 (A549 NSCLC) [µM]	GI50 (OVCAR-8 ovarian) [µM]	GI50 (NCI/ADR-RES ovarian) [nM]	GI50 (HCC-2998 colon) [nM]	GI50 (HOP-92 NSCLC) [nM]
C=C(C)COC1CCCCO1 (stereo not drawn)	> 100	> 100	> 100	> 100	> 100	> 100	> 100	> 100	> 100											
COc1ccc2c3c([nH]c2c1)CCN(CCCC(=O)c1ccc(F)cc1)C3	25.8	32.8	33.2	24.8	31.8	32.1	29.1	33.9	17.7											
COC(=O)N[C@H](C(=O)O)C(C)O[Si](C)(C)C(C)(C)C (stereo partly drawn)	> 100	> 100	> 100			> 100	> 100	> 100	> 100											
NC(CCOCCP(=O)(O)O)C(=O)O (stereo not drawn)	> 100	> 100		> 100	> 100	> 100	> 100	> 100	> 100	> 100										
COc1cc(OC)cc(-c2n/c(=C\c3c(O)[nH]c4ccc(OC)cc34)cc3c2=Nc2ccccc2-3)c1	80.9	22.4	56.9	34.3	> 100	26.1	32.4	18.7	3.51		25.2	3920	26.6	18.5	> 100000	11.6	12.1	3660	1870	
NNC(=S)NCCNC(=S)NN	> 100	> 100		> 100	> 100	> 100			> 100											
CCN(CC)CCN1C(=O)c2c(c3c4ccccc4[nH]c3c3ccc4ccccc4c23)C1=O	3.32	2.97		2.4	2.87		4.74	4.15	3.08	2.95	1.69	1310		1.17	1430		1.78	1590	1530	1420
C[C@@H]1C(=O)C[C@H]2C(C)(C)CCC[C@]2(C)[C@@]1(O)CCc1ccoc1	> 100	> 100	> 100	> 100	> 100	> 100	> 100		> 100	> 100										
O=C1CC[C@@]2(O)[C@H]3Cc4ccc(-c5ccccc5)c5c4[C@@]2(CCN3CC2CC2)[C@H]1O5	52.3	25	50.1		36.7	43.6	32.4	33.7	33.8	57.4										
CCOC(=O)c1nc2ccc(C(F)(F)F)cc2nc1Nc1ccc(Cl)c(Cl)c1	> 100	> 100		> 100	> 100	> 100	> 100	> 100	> 100	> 100										
C/C=C1\CN(C(=O)OC(C)(C)C)C1C(=O)OC(C)(C)C (stereo not drawn)	> 100	> 100			> 100	> 100	> 100	> 100	> 100	> 100										
NC1=NS(=O)(=O)Nc2nc(-c3ccccc3)[nH]c21	> 100	> 100	> 100	> 100		> 100	> 100		> 100	> 100										
COC(=O)c1c(C#N)c(N)nc2c1CCC2	> 100	> 100	> 100		> 100	> 100	> 100	> 100	> 100	> 100										
COC(=O)c1c(O)ccc2[nH]c3c(O)c4ccccc4cc3c12	39.6		> 100		45.9	> 100	48.9	78.4	32.8	61.8										
CC1(C)CCC(C)(C)C1C(=O)NC(O)C(=O)O (stereo not drawn)	> 100	> 100	> 100	> 100		> 100	> 100	> 100	> 100											
O=C(c1ccccc1)C1S(=O)(=O)OCCOS1(=O)=O	> 100	> 100		> 100	> 100	> 100	> 100		> 100	> 100										
COc1ccc([C@@H]2CC(=O)N2)cc1	> 100		> 100	> 100	> 100	> 100	> 100			> 100										
Clc1ccc(-c2cn3c(nc4ccccc43)c(/C=C/c3ccco3)n2)cc1		> 100	> 100	83.5		> 100		> 100	> 100	50.4										
CCOC(=O)C(Cc1c[nH]c2cc([N+](=O)[O-])ccc12)NS(=O)(=O)c1ccc2ccccc2c1 (stereo not drawn)	78.1	44.4	48.2	50.4		> 100	55.7		49.4	51.6										
C=C1C(O)C[C@H](OC(C)=O)[C@]2(C)C1C(OC(C)=O)[C@]1(C(C)(C)O)CC(O)C(C)=C1[C@@H](OC(=O)c1ccccc1)C2OC(C)=O (stereo partly drawn)	> 10	> 10	> 10	> 10	> 10	> 10	> 10	> 10		> 10										
O=C(N=c1ccc2nc(=O)[nH]n(O)c-2c1)C(F)(F)F	> 100	> 100	> 100	> 100	> 100	> 100	> 100	> 100												
COc1cc2c(c(O)c1OC)CC1CCC(=O)N1C2c1cccc2ccccc12 (stereo not drawn)	54.5	73		> 100	47.1	> 100	> 100	53.7	33.3	45.7										
